{
  "source": "paper PMC7448272",
  "about": "“Acetylation of Surface Carbohydrates in Bacterial Pathogens Requires Coordinated Action of a Two-Domain Membrane-Bound Acyltransferase” (mBio, 2020)",
  "experiment_in_all_cases": "acetylesterase assay, absorbance at […] nm, plate reader",
  "format_in_all_cases": "biochemical",
  "key": {"[1]": {"target": "T1, OafA-STM^C-short (Salmonella enterica, UniProt Q8ZNJ3)", "T1 construct": "periplasmic C-terminal SGNH domain with shortened SGNHext, residues 379-609; N-terminal His-MBP tag (3C-cleavable) removed; expressed in E. coli Origami", "T1 sequence (Q8ZNJ3 entry or part of it)": "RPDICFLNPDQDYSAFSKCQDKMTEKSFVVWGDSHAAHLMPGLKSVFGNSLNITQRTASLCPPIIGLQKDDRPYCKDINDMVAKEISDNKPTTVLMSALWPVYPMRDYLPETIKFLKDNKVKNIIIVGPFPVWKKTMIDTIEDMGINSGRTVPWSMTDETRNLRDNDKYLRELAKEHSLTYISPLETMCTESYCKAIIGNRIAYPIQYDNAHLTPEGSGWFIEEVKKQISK", "details": "10 uM enzyme, 0.5 mM substrate final, 37 C; also acetyl donor for LPS acetylation"}, "[2]": {"target": "T2, OafB-SPA^C-short (Salmonella enterica, UniProt A0A0H2WM30)", "T2 construct": "gene SPA0467; periplasmic C-terminal SGNH domain with shortened SGNHext, residues 399-640; codon-optimised gene; N-terminal His-MBP tag (3C-cleavable) removed; expressed in E. coli Origami", "T2 sequence (A0A0H2WM30 entry or part of it)": "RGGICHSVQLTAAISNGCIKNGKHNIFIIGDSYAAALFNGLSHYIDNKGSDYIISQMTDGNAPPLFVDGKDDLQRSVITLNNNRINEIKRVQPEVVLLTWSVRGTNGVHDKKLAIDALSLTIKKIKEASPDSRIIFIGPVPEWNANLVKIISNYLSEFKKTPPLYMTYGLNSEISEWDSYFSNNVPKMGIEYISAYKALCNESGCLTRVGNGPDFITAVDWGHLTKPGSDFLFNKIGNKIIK", "details": "40 uM enzyme (methods print OafB-STM^C-term), 0.5 mM substrate final, 37 C; also acetyl donor for LPS acetylation"}, "[3]": {"target": "T3, OafB-SPA^C-long (Salmonella enterica, UniProt A0A0H2WM30)", "T3 construct": "gene SPA0467; periplasmic C-terminal SGNH domain with full SGNHext, residues 377-640; codon-optimised gene; N-terminal His-MBP tag (3C-cleavable) removed; expressed in E. coli Origami", "T3 sequence (A0A0H2WM30 entry or part of it)": "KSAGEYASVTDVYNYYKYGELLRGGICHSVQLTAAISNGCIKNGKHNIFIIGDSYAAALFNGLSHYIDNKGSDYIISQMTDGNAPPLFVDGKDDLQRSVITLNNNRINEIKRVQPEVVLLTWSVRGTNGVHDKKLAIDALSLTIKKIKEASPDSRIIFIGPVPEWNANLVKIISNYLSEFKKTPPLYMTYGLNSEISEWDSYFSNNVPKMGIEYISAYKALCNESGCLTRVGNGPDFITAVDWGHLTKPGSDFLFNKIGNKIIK", "details": "40 uM enzyme (methods print OafB-STM^C-term), 0.5 mM substrate final, 37 C"}, "[4]": {"target": "T4, OafA-STM^C-long (Salmonella enterica, UniProt Q8ZNJ3)", "T4 construct": "periplasmic C-terminal SGNH domain with full SGNHext, residues 366-609; N-terminal His-MBP tag (3C-cleavable) removed; expressed in E. coli Origami", "T4 sequence (Q8ZNJ3 entry or part of it)": "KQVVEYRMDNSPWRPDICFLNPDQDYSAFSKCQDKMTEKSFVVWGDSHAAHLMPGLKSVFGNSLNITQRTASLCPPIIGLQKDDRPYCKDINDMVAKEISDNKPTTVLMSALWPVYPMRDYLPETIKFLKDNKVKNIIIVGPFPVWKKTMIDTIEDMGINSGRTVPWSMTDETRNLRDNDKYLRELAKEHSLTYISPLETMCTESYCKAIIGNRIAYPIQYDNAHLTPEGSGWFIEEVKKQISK", "details": "10 uM enzyme, 0.5 mM substrate final, 37 C; also acetyl donor for LPS acetylation"}},
  "data": [
    {"smiles": "CC(=O)Oc1ccc([N+](=O)[O-])cc1", "note": "[p-nitrophenyl acetate]", "values": [
      {"measurement": "acetylesterase assay, absorbance at 405 nm, plate reader", "setting": "[1]", "result": "all constructs via their ability to hydrolyze the ester substrate p-nitrophenyl acetate (pNP-Ac)"},
      {"measurement": "acetylesterase assay, absorbance at 405 nm, plate reader", "setting": "[2]", "result": "all constructs via their ability to hydrolyze the ester substrate p-nitrophenyl acetate (pNP-Ac)"},
      {"measurement": "acetylesterase assay, absorbance at 405 nm, plate reader", "setting": "[3]", "result": "all constructs via their ability to hydrolyze the ester substrate p-nitrophenyl acetate (pNP-Ac)"},
      {"measurement": "acetylesterase assay, absorbance at 405 nm, plate reader", "setting": "[4]", "result": "all constructs via their ability to hydrolyze the ester substrate p-nitrophenyl acetate (pNP-Ac)"}
    ]}
  ]
}
